Results published in US20040115237A1, “Biocompatible composite” (priority 2001, published 2004).

Experiments:
HA-VSCMs = experiment: HA-VSMC culture on silicone based film membranes, viability staining viewed under CLSM; type: cell-based, Human; settings: GTN coated FISi membrane vs FISi only film membranes
Method: HA-VSCMs were cultured on silicone based film membranes supplied by Vascutek. 2 membrane types were tested: uncoated FISi membrane and FISi membrane coated with GTN. Cells were seeded at 5×10^3 seeding density. Cells were cultured for a week and the medium was changed every two days. […] This problem was overcome by sticking the coverslips to the plate with double sided tape before the wells were seeded. Furthermore the cells were washed off during staining or the cells were saved for too long. Some cells were saved by introducing a gentle washing step. On the seventh day, the coverslips were stained and viewed under the CLSM for viability studies.
The following were used as viability stains; CFDA (carboxyfluorescein diacetate) is a vital stain that penetrates cell membranes. Viable cells contain esterase enzymes that remove the diacetate from the molecule thus forming CF which is fluorescent. Once CF if formed, it accumulates in the membrane and viable cells with fluoresce bright green.
Ethidium Bromide: is a vital dye that is only able to pass through the compromised membrane of dead cells and stain them red.
Acridine Orange: is a dye which intercalates with DNA and RNA by intercalation or electrostatic attraction.

[1] = tested on: Human Aortic Vascular SMC cell line; experiment: SMC growth inhibition after drug exposure, MTT assay and Neutral Red assay; type: cell-based; settings: high doses; analysed after 72 hours
Method: The Human Aortic Vascular SMC cell line was investigated. 96 well plates were seeded and were incubated for at least one day. Medium from the plate was removed and replaced with medium containing varying concentrations of drugs, the drugs being dex, aspirin, GTN or a combination of these drugs. The effects of the drugs were analysed after 72 hours with two viability assays: MTT assay and Neutral Red assay. Absorbance values were read from a microplate reader. MTT is a yellow tetrazolium salt taken up into cells. In viable cells, the salt was reduced in cytosol or mitochondria to form blue formazan salt. The formazan product was very insoluble and was disolved in dimethylsulphoxide before its absorbance was calculated. In non-viable cells, there was no reaction and the cells remained yellow. The Neutral Red assay involved adding neutral red solution, a red dye to cells. In viable cells, the dye stained lysosomes. The cells were incubated with neutral red solution for three hours (to enable dye to penetrate cells), a neutral red destain solution was then added to remove the dye. The intensity of the red colour equated to the number of viable cells.

| SMILES | cell growth compared to FISi only film membranes (HA-VSCMs) | role in the treatment of vascular proliferative disorder (SMC growth inhibition) [1] |
| --- | --- | --- |
| O=[N+]([O-])OCC(CO[N+](=O)[O-])O[N+](=O)[O-] [GTN, Glyceryl Trinitrate] | does not significantly decrease cell growth |  |
| CC(=O)Oc1ccccc1C(=O)O [aspirin, acetylsalicylic acid] |  | appear to have a beneficial role |
